Source: patent EP0094564A2, “Azolyl-methyl oxiranes, their preparation and use as medicaments and plant protecting agents” (BASF Aktiengesellschaft, priority 1982, dated 1983)
Converted amounts (≈) assume the structure as drawn.

Key:
[1] = test system: Trichom. vag.; assay: Minimal inhibitory concentration in vitro (protozoa); type: cell-based; details: read-out: Minimale Hemmkonzentration (MHK) Trichom. vag.
Excerpt: (§1) Die Wirkung gegen Dermatophyten, Bakterien und Protozonen kann nach Methoden, wie sie beispielsweise in P. Klein, Bakteriologische Grundlagen der chemotherapeutischen Laboratoriumspraxis, Springer-Verlag Berlin, 1957, beschrieben wird, aufgezeigt werden. Die überraschende Wirkung gegenüber Hefen wurde im Pseudomyzel- und Myzelphasentest mit Candida albicans nachgewiesen (vgl. DE-OS 30 10 093). Es wurde geprüft, welche minimalen Hemmkonzentrationen (MHK-Werte) im Agardilutionstest erreicht werden. In der Tabelle 1 sind die Ergebnisse zusammengefaßt.

[2] = test system: Microsp. ferrug. 5; assay: Agar dilution test, minimal inhibitory concentration in vitro; type: cell-based; details: read-out: Minimale Hemmkonzentration (MHK) Microsp. ferrug. 5
Excerpt: as §1

[3] = test system: E.coli muta-flor; assay: as above; type: cell-based; details: Escherichia coli, read-out: Minimale Hemmkonzentration (MHK) E.coli muta-flor
Excerpt: as §1

[4] = test system: Abs. corym. 1; assay: as above; type: cell-based; details: read-out: Minimale Hemmkonzentration (MHK) Abs. corym. 1
Excerpt: as §1

[5] = test system: Strept. faec. 8043; assay: as above; type: cell-based; details: read-out: Minimale Hemmkonzentration (MHK) Strept. faec. 8043
Excerpt: as §1

[6] = test system: Mucor pus. 6; assay: as above; type: cell-based; details: read-out: Minimale Hemmkonzentration (MHK) Mucor pus. 6
Excerpt: as §1

[7] = test system: Aps.fum. 2; assay: as above; type: cell-based; details: read-out: Minimale Hemmkonzentration (MHK) Aps.fum. 2
Excerpt: as §1

[8] = test system: Trichoph. ment. 21; assay: as above; type: cell-based; details: read-out: Minimale Hemmkonzentration (MHK) Trichoph. ment. 21
Excerpt: as §1

[9] = test system: Staph. aur. SG 511; assay: as above; type: cell-based; details: read-out: Minimale Hemmkonzentration (MHK) Staph. aur. SG 511
Excerpt: as §1

[10] = test system: Epid. flocc. 157; assay: as above; type: cell-based; details: read-out: Minimale Hemmkonzentration (MHK) Epid. flocc. 157
Excerpt: as §1

[11] = test system: Cand.alb. H; assay: Candida albicans pseudomycelium/mycelium phase test, MIC; type: cell-based; details: in vitro, column H, read-out: Minimale Hemmkonzentration (MHK) Cand.alb. H
Excerpt: as §1

[12] = test system: Trichoderma viride; assay: Versuch 6: fungal growth on malt extract agar containing active ingredient; type: cell-based; design: key: 0 = kein Pilzwachstum (Pilzmyzel abgetötet); 1 = geringes Pilzwachstum (bis 1/3 der Agaroberfläche bewachsen); 3 = mittleres Pilzwachstum (bis 2/3 der Agaroberfläche bewachsen); 5 = ungehemmtes Pilzwachstum (gesamte Agaroberfläche bewachsen); details: 40 ppm in 5 % malt extract agar; 5 days at 25 °C; growth score
Excerpt: (§2) Die Wirkstoffe werden in Aceton gelöst, in Mengen von 40 ppm einem verflüssigten 5 %igen Malzextraktagar zugesetzt. Der Agar wird in Petrischalen ausgegossen und nach dem Erstarren werden die fungizidhaltigen Nähragarplatten zentral mit Myzel der holzzerstörenden Pilze Coniophora puteana und Trametes versicolor, des Moderfäule und Stockflecken verursachenden Pilzes Chaetomium globosum sowie mit Sporen des grünen Holzschimmels Trichoderma viride beimpft.
(§3) Nach fünftägiger Bebrütung der Schalen bei 25 °C wird die Entwicklung der Pilzkolonien auf dem Nährboden im Vergleich mit der Kontrolle (ohne Wirkstoff-Zusatz) beurteilt: • 0 = kein Pilzwachstum (Pilzmyzel abgetötet) • 1 = geringes Pilzwachstum (bis 1/3 der Agaroberfläche bewachsen) • 3 = mittleres Pilzwachstum (bis 2/3 der Agaroberfläche bewachsen) • 5 = ungehemmtes Pilzwachstum (gesamte Agaroberfläche bewachsen)

[13] = test system: Trametes versicolor; assay: as above; type: cell-based; design: key: 0 = kein Pilzwachstum (Pilzmyzel abgetötet); 1 = geringes Pilzwachstum (bis 1/3 der Agaroberfläche bewachsen); 3 = mittleres Pilzwachstum (bis 2/3 der Agaroberfläche bewachsen); 5 = ungehemmtes Pilzwachstum (gesamte Agaroberfläche bewachsen); details: 40 ppm in 5 % malt extract agar; 5 days at 25 °C; growth score
Excerpt: as §2, §3

[14] = test system: Coniophora puteana; assay: as above; type: cell-based; design: key: 0 = kein Pilzwachstum (Pilzmyzel abgetötet); 1 = geringes Pilzwachstum (bis 1/3 der Agaroberfläche bewachsen); 3 = mittleres Pilzwachstum (bis 2/3 der Agaroberfläche bewachsen); 5 = ungehemmtes Pilzwachstum (gesamte Agaroberfläche bewachsen); details: 40 ppm in 5 % malt extract agar; 5 days at 25 °C; growth score
Excerpt: as §2, §3

[15] = test system: Chaetomium globosum; assay: as above; type: cell-based; design: key: 0 = kein Pilzwachstum (Pilzmyzel abgetötet); 1 = geringes Pilzwachstum (bis 1/3 der Agaroberfläche bewachsen); 3 = mittleres Pilzwachstum (bis 2/3 der Agaroberfläche bewachsen); 5 = ungehemmtes Pilzwachstum (gesamte Agaroberfläche bewachsen); details: 40 ppm in 5 % malt extract agar; 5 days at 25 °C; growth score
Excerpt: as §2, §3

[16] = test system: Botrytis cinerea; assay: Versuch 4: activity against Botrytis cinerea on paprika seedlings; type: in vivo; details: 0,05 %ige Spritzbrühe; sprayed before inoculation; assessed after 5 days; value given as 'beispielsweise'
Excerpt: Paprikasämlinge der Sorte "Neusiedler Ideal Elite" wurden, nachdem sich 4 bis 5 Blätter gut entwickelt hatten, mit wäßrigen Suspensionen, die 80 % Wirkstoff und 20 % Emulgiermittel in der Trockensubstanz enthielten, tropfnaß gespritzt. Nach dem Antrocknen des Spritzbelages wurden die Pflanzen mit einer Konidienaufschwemmung des Pilzes Botrytis cenerea besprüht und bei 22 bis 24 C in eine Kammer mit hoher Luftfeuchtigkeit gestellt. Nach 5 Tagen hatte sich die Krankheit auf den unbehandelten Kontrollpflanzen so stark entwickelt, daß die entstandenen Blattnekrosen den überwiegenden Teil der Blätter bedeckten.

[17] = test system: Gurkenmehltau (Erysiphe cichoracearum); assay: Versuch 3: activity against cucumber powdery mildew on cucumber seedlings; type: in vivo; details: 0,025 %ige Spritzbrühe; sprayed about 20 h after inoculation; assessed after 21 days; value given as 'beispielsweise'
Excerpt: Blätter von in Töpfen gewachsenen Gurkenkeimlingen der Sorte "Chinesische Schlange" wurden im Zweiblattstadium mit einer Sporensuspension des Gurkenmehltaus (Erysiphe cichoracearum) besprüht. Nach etwa 20 Stunden wurden die Versuchspflanzen mit wäßriger Spritzbrühe, die 80 % Wirkstoff und 20 % Emulgiermittel in der Trockensubstanz enthielt, bis zur Tropfnässe besprüht. Nach dem Antrocknen des J Spritzbelages wurden sie anschließend im Gewächshaus bei Temperaturen zwischen 20 und 22^00 und 70 bis 80 % relativer Luftfeuchtigkeit aufgestellt. Zur Beurteilung der Wirksamkeit der neuen Stoffe wurde das Ausmaß der Pilzentwicklung nach 21 Tagen beurteilt.

[18] = test system: Weizenbraunrost (Puccinia recondita); assay: Versuch 2: activity against wheat brown rust on wheat seedlings; type: in vivo; details: 0,025; 0,006; 0,0015 %ige Spritzbrühen; sprayed 24 h after inoculation; assessed after 8 days; value given as 'beispielsweise'
Experimental: Blätter von in Töpfen gewachsenen Weizensämlingen der Sorte "Jubilar" wurden mit Sporen des Braunrostes (Puccinia recondita) bestäubt. Danach wurden die Töpfe für 24 Stunden bei 20 bis 22°C in eine Kammer mit hoher Luftfeuchtigkeit (90 bis 95 %) gestellt. Während dieser Zeit keimten die Sporen aus und die Keimschläuche drangen in das Blattgewebe ein. Die infizierten Pflanzen wurden anschließend mit wäßrigen Spritzbrühen, die 80 % Wirkstoff und 20 % Emulgiermittel in der Trockensubstanz enthielten, tropfnaß gespritzt. Nach dem Antrocknen des Spritzbelages wurden die Versuchspflanzen im Gewächshaus bei Temperaturen zwischen 20 und 22°C und 65 bis 70 % relativer Luftfeuchte aufgestellt. Nach 8 Tagen wurde das Ausmaß der Rostpilzentwicklung auf den Blättern ermittelt.

[19] = test system: Weizenmehltau (Erysiphe graminis var. tritici); assay: Versuch 1: activity against wheat powdery mildew on wheat seedlings; type: in vivo; details: 0,025; 0,006; 0,0015 %ige Spritzbrühen; sprayed 24 h before inoculation; assessed after 7 days; value given as 'beispielsweise'
Experimental: Blätter von in Töpfen gewachsenen Weizenkeimlingen der Sorte "Jubilar" wurden mit wäßriger Spritzbrühe, die 80 % (Gew.%) Wirkstoff und 20 % Emulgiermittel in der Trockensubstanz enthielt, besprüht und 24 Stunden nach dem Antrocknen des Spritzbelages mit Oidien (Sporen) des Weizenmehltaus (Erysiphe graminis var. tritici) bestäubt. Die Versuchspflanzen wurden anschließend im Gewächshaus bei Temperaturen zwischen 20 und 22 °C und 75 bis 80 % relativer Luftfeuchtigkeit aufgestellt. Nach 7 Tagen wurde das Ausmaß der Mehltauentwicklung ermittelt.

[20] = test system: Cand.alb. M; assay: Candida albicans pseudomycelium/mycelium phase test, MIC (column M); type: cell-based; details: in vitro, read-out: Minimale Hemmkonzentration (MHK) Cand.alb. M
Excerpt: as §1

SMILES	Wirksamkeit gegen Trichoderma viride [12]	Wirksamkeit gegen Trametes versicolor [13]	Wirksamkeit gegen Coniophora puteana [14]	Wirksamkeit gegen Chaetomium globosum [15]	fungizide Wirkung gegen Botrytis cinerea an Paprika [16]	fungizide Wirkung gegen Gurkenmehltau [17]	fungizide Wirkung gegen Weizenbraunrost [18]	further results
Clc1ccc(C2(Cn3ccnc3)OC2c2ccccc2)cc1 (single isomer, unassigned) [Beispiel 9]								MIC [1]: > 16 µg/mL; MIC [2]: 0.25 µg/mL (≈ 0.804 µM); MIC [3]: > 128 µg/mL; MIC [4]: 4 µg/mL (≈ 12.9 µM); MIC [5]: 128 µg/mL (≈ 412 µM); MIC [6]: 2 µg/mL (≈ 6.44 µM); MIC [7]: 16 µg/mL (≈ 51.5 µM); MIC [8]: 1 µg/mL (≈ 3.22 µM); MIC [9]: 128 µg/mL (≈ 412 µM); MIC [10]: 1 µg/mL (≈ 3.22 µM); MIC [11]: > 1 µg/mL
Clc1ccc(C2OC2(Cn2cncn2)c2ccc(Br)cc2)c(Cl)c1 (single isomer, unassigned) [Beispiel 10]	0	0	0	0	97%	100%	100%	
CC1(Cn2cncn2)OC1c1ccc(Cl)cc1Cl (single isomer, unassigned) [Beispiel 23]	0	0	0	0				
CC(C)(C)C1(Cn2cncn2)OC1c1ccccc1 (single isomer, unassigned) [Beispiel 15]	1	0	0	3		100%		
Clc1ccc(C2(Cn3ccnc3)OC2c2ccc(Br)cc2)cc1 (single isomer, unassigned) [Beispiel 48]	0	0	0	0				
CC(C)(C)C1(Cn2ccnc2)OC1c1ccc(Cl)cc1 (single isomer, unassigned) [Beispiel 14]	0	0	0	0		100%		
OC(Cn1ccnc1)c1ccc(Cl)cc1Cl (stereo not shown) [Wirkstoff A, 1-(2,4-Dichlorphenyl)-2-(imidazol-1-yl)-ethan-1-ol, reference compound]					70%		50%	fungizide Wirkung gegen Weizenmehltau [19]: 90%
Clc1ccc(C2OC2(Cn2cncn2)c2ccc(Br)cc2)cc1 (single isomer, unassigned) [Beispiel 44]	0	0	0	1	97%	100%	100%	fungizide Wirkung gegen Weizenmehltau [19]: 100%
Clc1ccc(C2OC2(Cn2ccnc2)c2ccc(Br)cc2)c(Cl)c1 (single isomer, unassigned) [Beispiel 7]								MIC [1]: > 16 µg/mL; MIC [2]: 0.25 µg/mL (≈ 0.589 µM); MIC [3]: > 128 µg/mL; MIC [4]: 1 µg/mL (≈ 2.36 µM); MIC [5]: 16 µg/mL (≈ 37.7 µM); MIC [6]: 2 µg/mL (≈ 4.72 µM); MIC [7]: 4 µg/mL (≈ 9.43 µM); MIC [8]: 1 µg/mL (≈ 2.36 µM); MIC [9]: 16 µg/mL (≈ 37.7 µM); MIC [10]: 1 µg/mL (≈ 2.36 µM); MIC [20]: 0.0156 µg/mL (≈ 0.0368 µM); MIC [11]: 16 µg/mL (≈ 37.7 µM)
O=C(Cn1cncn1)c1ccc(Cl)cc1Cl [Wirkstoff B, (2,4-Dichlorphenyl)-1,2,4-triazol-1-yl-methylketon, reference compound]					70%		50%	fungizide Wirkung gegen Weizenmehltau [19]: 90%
Clc1ccc(C2OC2(Cn2ccnc2)c2ccccc2)c(Cl)c1 (single isomer, unassigned) [Beispiel 6]					97%	100%	100%	MIC [1]: > 16 µg/mL; MIC [2]: 0.0625 µg/mL (≈ 0.181 µM); MIC [3]: > 128 µg/mL; MIC [4]: 8 µg/mL (≈ 23.2 µM); MIC [5]: 16 µg/mL (≈ 46.3 µM); MIC [6]: 4 µg/mL (≈ 11.6 µM); MIC [7]: 0.0625 µg/mL (≈ 0.181 µM); MIC [9]: 16 µg/mL (≈ 46.3 µM); MIC [20]: < 0.0039 µg/mL; MIC [11]: 32 µg/mL (≈ 92.7 µM)
Clc1ccc(C2(Cn3ccnc3)OC2c2ccc(Br)cc2)c(Cl)c1 (single isomer, unassigned) [Beispiel 49]	0	0	0	1				
Fc1ccc(C2OC2(Cn2cncn2)c2ccc(Cl)cc2)cc1 (single isomer, unassigned) [Beispiel 45]	0	0	0	1		100%		
Clc1ccc(C2(Cn3cncn3)OC2c2ccc(Br)cc2)cc1 (single isomer, unassigned) [Beispiel 46]	0	0	0	0	97%		100%	fungizide Wirkung gegen Weizenmehltau [19]: 100%
